Reference: ChEMBL document CHEMBL3596121, “Naphthalene and 2,3-dihydrobenzo[b][1,4]dioxine derivatives with extended side chains as new scaffolds of CB2-selective ligands” (Medchemcomm, 2014)

Assays:
Cannabinoid receptor 1 [1] = molecular target: T1, Cannabinoid receptor 1 (Homo sapiens, UniProt P21554); conditions: HEK293, at 10 µM
Description: Maximum displacement of human recombinant CB1 receptor expressed in HEK293 cell membranes at 10 uM incubated for 90 mins by radioligand binding assay

Cannabinoid receptor 2 [2] = molecular target: T2, Cannabinoid receptor 2 (Homo sapiens, UniProt P34972); assay: Displacement of human recombinant CB2 receptor expressed in HEK293 cell membranes incubated for 90 mins by Cheng-Prusoff equation based analysis
Cannabinoid receptor 2 [3] = molecular target: T2, Cannabinoid receptor 2; conditions: HEK293, at 10 µM
Description: Maximum displacement of human recombinant CB2 receptor expressed in HEK293 cell membranes at 10 uM incubated for 90 mins by radioligand binding assay

Cannabinoid receptor 1 [4] = molecular target: T1, Cannabinoid receptor 1; assay: Displacement of human recombinant CB1 receptor expressed in HEK293 cell membranes incubated for 90 mins by radioligand binding assay; assay type: cell-based
Cannabinoid receptor 1 [5] = molecular target: T1, Cannabinoid receptor 1; assay: Displacement of human recombinant CB1 receptor expressed in HEK293 cell membranes incubated for 90 mins by Cheng-Prusoff equation based analysis
Cannabinoid receptor 2 [6] = molecular target: T2, Cannabinoid receptor 2; assay: Displacement of human recombinant CB2 receptor expressed in HEK293 cell membranes incubated for 90 mins by radioligand binding assay; assay type: cell-based
HEK293 = assay: Selectivity index, ratio of Ki for human recombinant CB1 receptor expressed in HEK293 cell membranes to Ki for human recombinant CB2 receptor expressed in HEK293 cell membranes; assay type: cell-based

T1 sequence (P21554 whole entry): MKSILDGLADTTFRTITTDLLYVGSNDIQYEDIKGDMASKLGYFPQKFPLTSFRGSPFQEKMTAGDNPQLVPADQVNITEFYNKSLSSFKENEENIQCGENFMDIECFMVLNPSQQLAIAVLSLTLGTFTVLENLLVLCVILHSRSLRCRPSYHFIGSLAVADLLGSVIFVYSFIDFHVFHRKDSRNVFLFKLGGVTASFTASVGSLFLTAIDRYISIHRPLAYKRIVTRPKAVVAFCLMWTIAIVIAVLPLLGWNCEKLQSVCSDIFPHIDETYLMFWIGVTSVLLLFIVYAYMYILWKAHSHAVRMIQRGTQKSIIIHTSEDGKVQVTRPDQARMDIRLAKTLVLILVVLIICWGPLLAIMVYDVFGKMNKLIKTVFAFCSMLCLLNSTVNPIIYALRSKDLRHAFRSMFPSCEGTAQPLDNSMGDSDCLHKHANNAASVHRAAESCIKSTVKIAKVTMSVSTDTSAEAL
T2 sequence (P34972 whole entry): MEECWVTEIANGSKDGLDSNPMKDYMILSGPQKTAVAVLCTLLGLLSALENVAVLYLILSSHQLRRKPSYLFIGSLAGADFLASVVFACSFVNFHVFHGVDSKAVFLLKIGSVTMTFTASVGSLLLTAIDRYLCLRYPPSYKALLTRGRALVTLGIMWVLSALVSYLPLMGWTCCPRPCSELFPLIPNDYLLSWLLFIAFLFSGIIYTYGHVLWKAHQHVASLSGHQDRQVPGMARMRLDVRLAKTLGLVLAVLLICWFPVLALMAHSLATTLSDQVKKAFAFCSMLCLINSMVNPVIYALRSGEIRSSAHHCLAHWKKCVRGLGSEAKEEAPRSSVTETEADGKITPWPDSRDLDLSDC

| SMILES | Imax (Cannabinoid receptor 1 [1]) | Ki (Cannabinoid receptor 2 [2]) | Imax (Cannabinoid receptor 2 [3]) | IC50 (Cannabinoid receptor 1 [4]) | Ki (Cannabinoid receptor 1 [5]) | IC50 (Cannabinoid receptor 2 [6]) | Ratio Ki (HEK293) | log(ratioKi) (HEK293) |
| --- | --- | --- | --- | --- | --- | --- | --- | --- |
| CCS(=O)(=O)NCCCCCOc1ccc2ccccc2c1 | 11.9% | > 10 µM | 23.7% | > 10 µM | > 10 µM | > 10 µM | – | – |
| O=C(CCCCCOc1ccc2ccccc2c1)NC1CC1 | 44.8% | > 10 µM | 31.4% | > 10 µM | > 10 µM | > 10 µM | – | – |
| O=C(/C=C/C=C/c1ccc2c(c1)OCCO2)NC1CC1 | 6.18% | > 10 µM | 26.5% | > 10 µM | > 10 µM | > 10 µM | – | – |
| CCOC(=O)CNC(=O)/C=C/C=C/c1ccc2c(c1)OCCO2 | 4.77% | 2.56 µM | 55.1% | > 10 µM | > 10 µM | 9.69 µM | > 3.9 | – |
| CCCC(C)(C)c1ccc2c(c1)OC(C)(C)[C@@H]1CC=C(C)C[C@@H]21 | < 50% | 0.14 µM | 50% | > 10 µM | > 10 µM | 0.55 µM | > 71.4 | – |
| CCOC(=O)CNC(=O)/C=C/C=C/c1ccc2ccccc2c1 | 2.24% | > 10 µM | 48.5% | > 10 µM | > 10 µM | > 10 µM | – | – |
| O=C(/C=C/C=C/c1ccc2c(c1)-c1ccccc1C2)NCCO | 0% | > 10 µM | 24.2% | > 10 µM | > 10 µM | > 10 µM | – | – |
| CCNC(=O)NCCCCCOc1cccc2ccccc12 | 18.5% | > 10 µM | 23.8% | > 10 µM | > 10 µM | > 10 µM | – | – |
| O=C(/C=C/C=C/c1ccc2ccccc2c1)NCCO | 4.91% | 1.27 µM | 54.6% | > 10 µM | > 10 µM | 4.81 µM | > 7.87 | – |
| O=C(CCCCCOc1ccc2ccccc2c1)NCCO | 3.65% | > 10 µM | 3.6% | > 10 µM | > 10 µM | > 10 µM | – | – |
| CC1(Cc2ccccc2)COc2cc(C(=O)N3CCCCC3)ccc21 (centres undefined) | – | – | – | – | > 10 µM | – | – | 1.37 |
| O=C(CCCCCOc1cccc2ccccc12)NC1CC1 | 24.7% | > 10 µM | 27.8% | > 10 µM | > 10 µM | > 10 µM | – | – |
| CCOC(=O)CNC(=O)CCCCCOc1cccc2ccccc12 | 27.7% | > 10 µM | 0% | > 10 µM | > 10 µM | > 10 µM | – | – |
| O=C(/C=C/C=C/c1ccc2c(c1)-c1ccccc1C2)NC1CC1 | 13.6% | > 10 µM | 36.1% | > 10 µM | > 10 µM | > 10 µM | – | – |
| CCNC(=O)NCCCCCOc1ccc2ccccc2c1 | 9.27% | > 10 µM | 27.1% | > 10 µM | > 10 µM | > 10 µM | – | – |
| CCS(=O)(=O)NCCCCCOc1ccc2c(c1)OCO2 | 3.37% | > 10 µM | 29.5% | > 10 µM | > 10 µM | > 10 µM | – | – |
| CCOC(=O)CNC(=O)CCCCCOc1ccc2ccccc2c1 | 6.46% | > 10 µM | 25.5% | > 10 µM | > 10 µM | > 10 µM | – | – |
| CCNC(=O)NCCCCCSc1ccc2ccccc2c1 | 16.9% | 0.56 µM | 68.2% | > 10 µM | > 10 µM | 2.11 µM | > 17.9 | 1.3 |
| CCNC(=O)NCCCCCOc1ccc2c(c1)OCO2 | 3.38% | > 10 µM | 22.6% | > 10 µM | > 10 µM | > 10 µM | – | – |
| NC(=O)NCCCCCOc1ccc2c(c1)OCO2 | 2.39% | > 10 µM | 22.1% | > 10 µM | > 10 µM | > 10 µM | – | – |
| CCS(=O)(=O)NCCCCCSc1ccc2ccccc2c1 | 23.6% | 1.32 µM | 63.3% | > 10 µM | > 10 µM | 5.02 µM | > 7.58 | – |
| NC(=O)NCCCCCOc1cccc2ccccc12 | 6.88% | > 10 µM | 4.6% | > 10 µM | > 10 µM | > 10 µM | – | – |
| O=C(/C=C/C=C/c1ccc2ccccc2c1)NC1CC1 | 18.5% | 0.81 µM | 58.5% | > 10 µM | > 10 µM | 3.02 µM | > 12.2 | – |
| CCS(=O)(=O)NCCCCCOc1cccc2ccccc12 | 7.86% | > 10 µM | 30.9% | > 10 µM | > 10 µM | > 10 µM | – | – |
| O=C(CCCCCOc1cccc2ccccc12)NCCO | 27% | > 10 µM | 14.8% | > 10 µM | > 10 µM | > 10 µM | – | – |
| CCOC(=O)CNC(=O)/C=C/C=C/c1ccc2c(c1)-c1ccccc1C2 | 5.47% | > 10 µM | 39.1% | > 10 µM | > 10 µM | > 10 µM | – | – |
